The subject of data set [1] is Intact neutrophils from peripheral blood. The data set can be described thus: LXA4 metabolism by intact neutrophils. The format is in vitro ADME, human. The settings on record: intact neutrophils of healthy donors. Here is the method: (§1) Human PMN were obtained from healthy volunteers by gradient centrifugation of heparinized fresh venous blood (Böyum, A. ([…]) Scand. J. Clin. Lab. Invest. 21:77). HL-60 cells were seeded in RPMI supplemented with penicillin (100 U/ml), streptomycin (100 μ/ml), fetal bovine serum (10%) (Hyclone, Logan, Utah) and incubated (37° C. with 5% CO2 atmosphere) in plastic 250 ml flasks. Individual flasks containing […] HL-60 cells/ml were incubated in the presence or absence of phorbol 12-myristate 13-acetate (PMA) (10 or 16 nM, 24-27 h) and adherence was monitored for induction of macrophage-like phenotype as in Collins, S. J. (1987) Blood 70:1233. […]
(§2) Incubations with eicosanoids were stopped with cold methanol containing either PGB2 or 5-HETE as internal standards (5-HETE was used when 15-oxo-ETE was quantified). […] Formation of 15-oxo-ETE by 100,000 g supernatants (cf. Agins, A. P. et al. (1987) Agents Actions 21:397; Xun, C-Q. et al.(1991) Biochem. J. 279:553; and Sok, D-E. et al. (1988) Biochem. Biophys. Res. Commun. 156:524) was quantified after RP-HPLC using an ODS column (4.6 mm×25 cm) eluted with methanol/H2O/acetic acid (70:30:0.01, v/v/v) monitored at 280 nm with a flow rate of 1 ml/min. […] On-line spectra were recorded using a diode array detector (Hewlett-Packard 1040M series II) equipped with HPLC^3D ChemStation software (DOS series). […]

The next data set relates to A549 cells. The data set can be described thus: A549 cell proliferation, MTT assay. The format is cell-based, human. A digest of the protocol:
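A549 cells, ~2000/well, given compounds at 5-1000 nM or 0.15% ethanol vehicle after 24 h, quadruplicates, up to 96 h at 37° C. MTT added 4 h, dye extracted in acidified isopropanol and read at 570 nm; MTT signal linear with cell number.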

A further data set addresses T1, 15-PGDH (Homo sapiens, UniProt P15428).
T1 construct: 100,000 g supernatants prepared from PMA-treated HL-60 cells converted 15-HETE to 15-oxo-ETE; endogenous in cells; host or cells: HL-60 cells treated with PMA (16 nM, 24-72 h); freeze-thaw lysate, 100,000 g supernatant
T1 sequence (P15428 1-266): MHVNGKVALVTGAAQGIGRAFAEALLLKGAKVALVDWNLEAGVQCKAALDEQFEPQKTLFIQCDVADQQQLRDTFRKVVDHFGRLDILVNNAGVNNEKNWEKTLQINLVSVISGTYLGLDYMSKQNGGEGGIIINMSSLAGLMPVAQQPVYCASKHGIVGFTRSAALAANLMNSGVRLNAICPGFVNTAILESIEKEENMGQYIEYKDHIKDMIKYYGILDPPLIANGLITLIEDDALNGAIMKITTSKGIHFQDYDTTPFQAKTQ
The data set can be described thus: 15-HETE to 15-oxo-ETE dehydrogenase activity of 100,000 g supernatants of PMA-treated HL-60 cells. The format is biochemical. The procedure:
as §1, §2

In the case of `CCCCC[C@H](O)/C=C/C=C\C=C\C=C\[C@@H](O)[C@@H](O)CCCC(=O)O` [LXA4, (5S, 6R, 15S)-trihydroxy-7E, 9E, 11Z, 13E-eicosatetraenoic acid], the “metabolism of exogenous LXA4” value in data set [1] is “did not significantly metabolize”. Moreover, in the data set with A549 cells (1 μM, after 72 and 96 hours of treatment), the “inhibition of A549 cell proliferation over time” value is listed as “inhibited A549 cell proliferation”. The inhibition (as a rule, how much of the control response was suppressed) at 0.1 µM in the data set on A549 cells (Homo sapiens, A549, 10^−7 M, 72 hours at 37° C., mean ± SEM, 3 to 7 experiments) amounted to 16.3 ± 5.2%. In the data set with A549 cells (Homo sapiens, A549, MTT assay, 72 hours, read-out: half maximum inhibition (IC50) of A549 cell proliferation), the IC50 is around 0.08 µM. Also, the inhibitory constant (Ki) – broadly, the dissociation constant of the complex between target and ligand, obtained from inhibition or displacement – on 15-PGDH (Lineweaver-Burke plots, S.E.M., n=6, read-out: Ki, competition for catalysis of 15-HETE) is 8.2 ± 2.6 µM. Besides, the “block of 15-oxo-ETE formation” value on 15-PGDH (equimolar concentrations of LXA4 and 15-HETE) was “≈ 50%”.
